Test results from US12612403B2, “Nitrogen-containing heterocyclic derivative inhibitor, and preparation method therefor and use thereof” (SHANGHAI HANSOH BIOMEDICAL CO., LTD., priority 2024, dated 2026).

Columns and labels:
[1] = system: PCSK9 secreted by HepG2 cells; assay: Effect on the concentration of PCSK9 secreted by HepG2 cells (ELISA); assay type: cell-based; settings: Homo sapiens, 48 hours, PCSK9 in culture medium by ELISA
Experimental: 1. Experimental objective: To detect the inhibitory effect of the compounds on PCSK9.
2. Experimental method: • 1) HepG2 cell strain was cultured in the complete culture medium at 37° C., 5% CO2 to 70-90% confluence. • 2) The cells were digested and resuspended in the experimental culture medium, inoculated at 25,000 cells/well/200 μL in a 96-well cell culture plate, and cultured at 37° C. and 5% CO2 for 20-24 hours. • 3) The culture medium was removed from the cell culture plate, and the cell culture plate was washed once by adding 200 ul of the experimental culture medium to each well. • 4) Preparation of positive control compound and compound to be tested: the positive control compound and the compound to be tested were diluted on the compound plate. • 5) The diluted compound was added to the cell culture plate at 250 μL per well and incubated at 37° C. and 5% CO2 for 48 hours. • 6) The cell culture medium was collected at 200 μL per well and cryopreserved at −80° C. for later use. • 7) A sample of the cell culture medium was taken from the −80° C. cryopreservation condition, dissolved, vortexed, and centrifuged for later use. • 8) Preparation of standard curve: corresponding volumes of Dilution buffer were successively added to respective standard tubes, and in the order of the concentrations of 10, 5, 2.5, 1.25, 0.625, 0.313, 0.16, 0 ng/mL, the standard was diluted in series by taking the corresponding volume from the original tube or the last concentration tube. • 9) Preparation of washing liquid: 10x Wash buffer was diluted into 1x with Milli-Q for later use. • 10) According to the standard curve wells and sample wells set according to a plate map, 100 μL/well of the corresponding standards and culture medium samples were added to the wells, with 2 replicate wells. A self-adhesive seal was applied, the plate was placed on a plate shaker at room temperature, gently shaken, uniformly mixed, and incubated for 1 hour. • 11) The plate was placed on the plate washer, the washing liquid was set to 350 μL per well, and the plate was washed 4 times repeatedly. • 12) 100 μL/well of an HRP-conjugated detection antibody was added, a self-adhesive seal was applied, and the plate was placed on the plate shaker, well mixed uniformly, and incubated for 1 hour. • 13) The plate was placed on the plate washer, the washing liquid was set to 350 μL per well, and the plate was washed 4 times repeatedly. • 14) 100 μL/well of Substrate reagent was added, and the plate was placed in the dark, applied with a self-adhesive seal, placed on the plate shaker, well mixed uniformly, and incubated for 10-20 minutes. • 15) 100 μL of Stop solution (1N H2SO4) was added to each well and mixed uniformly. • 16) The optical density (OD) value in each well was measured in sequence at a wavelength of 450 nm by the microplate reader. Detection was carried out within 30 min after the reaction was stopped.
3. Experimental data processing method: After the OD values were read by the microplate reader, the OD value of the 0-concentration standard in the standard group was subtracted from the OD values of the standards, control group, and samples to obtain the actual OD values for these wells. A standard curve was plotted with Graphpad and the concentration of the sample was calculated. If the dilution was performed during the sample detection, the calculated sample concentration was necessarily multiplied by the corresponding dilution ratio in the final calculation, which was the actual concentration of the sample. Inhibition rate=(actual concentration in control−actual concentration in sample)/actual concentration in control*100. According to the inhibition rates corresponding to the different concentrations, IC50 was derived by Graphpad.

[2] = Pharmacokinetic determination in mice (PO 5 mg/kg, IV 1 mg/kg); assay type: in vivo, C57BL/6J mice; settings: male, C57BL/6J, mouse, plasma, C57 mice, PO administration, 5 mpk; for AUC(0-inf): read-out: Area under the curve AUC0-∞; for half-life: read-out: Half-life t1/2 (converted); for MRT: read-out: Mean residence time MRT; for Cmax: read-out: Plasma concentration Cmax; for Tmax: read-out: Time to peak tmax
Experimental: 1. Experimental objective: C57BL/6J mice were used as test animals to study the pharmacokinetic behavior of the compounds of the present disclosure in mice (plasma) after oral and intravenous administration.
2.2 Test animals: C57 mice, male, purchased from Shanghai Bk Lab Animal Co., Ltd., with animal production license number (SCXK (Shanghai) 2013-0006 N0.311620400001794).
2.3 Drug preparation: Preparation of oral drug: 10% Solutol HS15
10 g of Solutol HS15 solid was weighed, dissolved in 90 mL of pure water, uniformly mixed, stirred, and ultrasonically treated to form a clear solution. The compound of the present disclosure was weighed and dissolved in this solution, uniformly shaken, and ultrasonically treated for 15 minutes to obtain a colorless clear solution with a concentration of 0.5 mg/mL. Preparation of intravenous drug: 5% DMSO+10% Solutol HS15+85% PBS, the compound of the present disclosure was weighed, 5% DMSO was first added on the basis of the proportion relative to the total volume of administration, and the mixture was vortexed and ultrasonically treated for 2 min until it was completely dissolved; 10% of Solutol HS15 was then added, and the mixture was vortexed and ultrasonically treated for 2 min until it was completely dissolved; and finally, 85% of PBS was added, and the mixture was vortexed, ultrasonically treated for 5 min, and filtered through a 0.22 um filter membrane to obtain a colorless and transparent clear solution with a concentration of 0.2 mg/mL.
2.4 Administration: 3 male C57 mice were fasted overnight and then respectively administered PO at a dose of 5 mg/kg and a volume of 10 mL/kg. 3 male C57 mice were fasted overnight and then respectively administered IV at a dose of 1 mg/kg and a volume of 5 mL/kg.
2.5 Sample collection: Before and after administration of mice, 0.04 mL of blood was collected from the orbit at 0.083 (iv), 0.25, 0.5, 1, 2, 4, 8, and 24 hours, and placed in EDTA-K2 test tubes, which was centrifuged at 6000 rpm at 4° C. for 6 min to separate plasma which was stored at −80° C.; and the […] were fed 4 h after administration.
2.6 Determination results: The final determination results were obtained by using an LCMS/MS method.
3. Experimental results: The main pharmacokinetic parameters were calculated using WinNonlin 6.1.

PCSK9 protein = molecular target: T1, PCSK9 protein (Homo sapiens, UniProt Q8NBP7); assay: Binding ability to PCSK9 protein (HTRF); settings: PCSK9-His, Alexa Fluor 647 probe compound
T1 construct: purchased Sino biology (Sino Biological) 29698-H08H
Experimental: 1. Experimental objective: To detect the action of compounds to bind PCSK9 protein by an HTRF method.
3. Experimental data processing method: Four-parameter log(inhibitor) vs. response—Variable slope (four parameters) in XLit was used to perform non-linear fitting of the compound concentration and the corresponding inhibition rate, and IC50 was calculated.

T1 sequence (Q8NBP7 153-692): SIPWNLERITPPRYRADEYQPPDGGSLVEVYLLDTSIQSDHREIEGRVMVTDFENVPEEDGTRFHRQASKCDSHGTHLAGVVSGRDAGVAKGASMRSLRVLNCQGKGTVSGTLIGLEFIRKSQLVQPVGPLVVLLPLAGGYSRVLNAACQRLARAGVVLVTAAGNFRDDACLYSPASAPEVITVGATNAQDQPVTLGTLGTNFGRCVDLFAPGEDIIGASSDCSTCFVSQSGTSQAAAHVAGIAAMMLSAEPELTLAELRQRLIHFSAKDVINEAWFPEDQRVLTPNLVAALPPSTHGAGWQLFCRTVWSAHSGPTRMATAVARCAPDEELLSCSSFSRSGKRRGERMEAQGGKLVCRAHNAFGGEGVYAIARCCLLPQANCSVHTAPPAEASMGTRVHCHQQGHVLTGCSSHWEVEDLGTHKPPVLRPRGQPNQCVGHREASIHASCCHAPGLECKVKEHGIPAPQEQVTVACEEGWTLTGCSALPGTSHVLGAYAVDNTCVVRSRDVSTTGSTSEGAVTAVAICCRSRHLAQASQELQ

Structure (SMILES)	IC50 [1]	AUC(0-inf) [2]	half-life [2]	MRT [2]	Cmax [2]	Tmax [2]	IC50 (PCSK9 protein)
N#Cc1cnc2c(c1)C(=O)N(c1ccc(N[C@H]3CC[C@H](Nc4nc5cc(C(F)(F)F)ccn5n4)C3)nc1)C2 [Example 65, 5-carbonyl-6-(6-(((1S,3S)-3-((7-(trifluoromethyl)-[1,2,4]triazolo[1,5-a]pyridin-2-yl)amino)cyclopentyl)amino)pyridin-3-yl)-6,7-dihydro-5H-pyrrolo[3,4-b]pyridine-3-carbonitrile]	12.8 µM	70000 ng·h/mL	4 h	5.8 h	7870 ng/mL	4 h	0.0139 µM
Cc1ccc2c(c1)C(=O)N(c1ccc(N[C@H]3CC[C@H](Nc4nc5cc(C(F)(F)F)ccn5n4)C3)nc1)C2 [Example 82, 6-methyl-2-(6-(((1S,3S)-3-((7-(trifluoromethyl)-[1,2,4]triazolo[1,5-a]pyridin-2-yl)amino)cyclopentyl)amino)pyridin-3-yl)isoindolin-1-one]	0.8 µM						0.0118 µM
O=C1c2cc(F)ccc2CN1c1ccc(N[C@H]2CC[C@H](Nc3nc4cc(C(F)(F)F)ccn4n3)C2)nc1 [Example 83, 6-fluoro-2-(6-(((1S,3S)-3-((7-(trifluoromethyl)-[1,2,4]triazolo[1,5-a]pyridin-2-yl)amino)cyclopentyl)amino)pyridin-3-yl)isoindolin-1-one]	1.1 µM						0.0115 µM
O=C1c2ccccc2CN1c1ccc(N[C@H]2CC[C@H](Nc3nc4cc(C(F)(F)F)ccn4n3)C2)nc1 [Example 84, 2-(6-(((1S,3S)-3-((7-(trifluoromethyl)-[1,2,4]triazolo[1,5-a]pyridin-2-yl)amino)cyclopentyl)amino)pyridin-3-yl)isoindolin-1-one]	4.7 µM						0.0063 µM
Cc1cc2c(cn1)C(=O)N(c1ccc(N[C@H]3CC[C@H](Nc4nc5cc(C(F)(F)F)ccn5n4)C3)nc1)C2 [Example 89, 6-methyl-2-(6-(((1S,3S)-3-((7-(trifluoromethyl)-[1,2,4]triazolo[1,5-a]pyridin-2-yl)amino)cyclopentyl)amino)pyridin-3-yl)-1,2-dihydro-3H-pyrrolo[3,4-c]pyridin-3-one]	4 µM	34300 ng·h/mL	2.7 h	3.1 h	10300 ng/mL	0.25 h	0.0105 µM
Cc1ccc2c(n1)C(=O)N(c1ccc(N[C@H]3CC[C@H](Nc4nc5cc(C(F)(F)F)ccn5n4)C3)nc1)C2 [Example 91, 2-methyl-6-(6-(((1S,3S)-3-((7-(trifluoromethyl)-[1,2,4]triazolo[1,5-a]pyridin-2-yl)amino)cyclopentyl)amino)pyridin-3-yl)-5,6-dihydro-7H-pyrrolo[3,4-b]pyridin-7-one]	12.9 µM						0.0104 µM
Cc1cnc2c(c1)CN(c1ccc(N[C@H]3CC[C@H](Nc4nc5cc(C(F)(F)F)ccn5n4)C3)nc1)C2=O [Example 94]	20.5 µM						0.0095 µM
Cc1cn(-c2ccc(N[C@H]3CC[C@H](Nc4nc5cc(C(F)(F)F)ccn5n4)C3)nc2)c(=O)nc1N [Example 109]	19.6 µM						0.0161 µM
Cc1cn(-c2ccc(N[C@H]3CC[C@H](Nc4nc5cc(C(F)(F)F)ccn5n4)C3)nc2)c(=O)nc1O [Example 111]	11.2 µM						0.0162 µM
[2H]C1([2H])c2ncccc2C(=O)N1c1ccc(N[C@H]2CC[C@H](Nc3nc4cc(C(F)(F)F)ccn4n3)C2)nc1 [Example 114]	14.7 µM	7230 ng·h/mL	3.1 h	3 h	2350 ng/mL	0.5 h	0.0089 µM
Cc1cnc2c(c1)C(=O)N(c1ccc(N[C@H]3CC[C@H](Nc4nc5cc(C(F)(F)F)ccn5n4)C3)nc1)C2 [Example 115]	2.6 µM						0.0099 µM
O=C1c2cc(Cl)cnc2CN1c1ccc(N[C@H]2CC[C@H](Nc3nc4cc(C(F)(F)F)ccn4n3)C2)nc1 [Example 116]	0.5 µM						0.0164 µM
O=C1c2ccc(Cl)cc2CN1c1ccc(N[C@H]2CC[C@H](Nc3nc4cc(C(F)(F)F)ccn4n3)C2)nc1 [Example 117]	0.4 µM						0.0183 µM
N#Cc1cnc2c(c1)C(=O)N(c1ccc(N[C@H]3CC[C@H](Nc4nc5cc(OC(F)F)ccn5n4)C3)nc1)C2 [Example 123]	5.2 µM	62200 ng·h/mL	2.4 h	4.3 h	9920 ng/mL	2 h	0.0115 µM
N#Cc1ccc2c(n1)CN(c1ccc(N[C@H]3CC[C@H](Nc4nc5cc(OC(F)F)ccn5n4)C3)nc1)C2=O [Example 132]	6.5 µM	30600 ng·h/mL	2.9 h	3 h	8570 ng/mL	0.5 h	0.01 µM
O=C1c2ccc(C(F)(F)F)nc2CN1c1ccc(N[C@H]2CC[C@H](Nc3nc4cc(OC(F)F)ccn4n3)C2)nc1 [Example 133]	0.4 µM	86800 ng·h/mL	5 h	5.8 h	11000 ng/mL	2 h	0.0078 µM
N#Cc1cnc2c(c1)C(=O)N(c1cnc(N[C@H]3CC[C@H](Nc4nc5cc(C(F)(F)F)ccn5n4)C3)c(F)c1)C2 [Example 147]	0.3 µM						0.0088 µM
N#Cc1cnc2c(c1)C(=O)N(c1cnc(N[C@H]3CC[C@H](Nc4nc5cc(OC(F)F)ccn5n4)C3)c(F)c1)C2 [Example 153]	0.8 µM						0.0122 µM
N#Cc1ccnc2c1C(=O)N(c1ccc(N[C@H]3CC[C@H](Nc4nc5cc(C(F)(F)F)ccn5n4)C3)nc1)C2 [Example 163]	10.8 µM						0.0063 µM
